In patent US12239654B2, “Compounds and methods for treating neurological and cardiovascular conditions” (Astrocyte Pharmaceuticals, Inc., priority 2016, dated 2025):
Entries after “also recorded” stand apart in the source; their conditions may differ.

Columns and labels:
[1] = tested on: mice subjected to stroke; assay: Photothrombosis-induced stroke in mice, TTC-stained brain infarction size; format: in vivo, C57Bl/6 mice; details: for efficacy in the mouse photothrombotic stroke model: summary statement; for size of brain infarctions in mice pretreated with A3 receptor antagonist MRS1523: MRS1523 2 mg/kg ip at 0 and 2 hour, treatment within 30 minutes of clot formation; for size of brain infarctions in mice pretreated with A3 receptor antagonist MRS1523 / size of the brain infarction (TTC staining): 24 hours; for size of the brain infarction (TTC staining): photothrombotic stroke mice, vs vehicle
Description: Photothrombosis-induced Stroke: Photothrombosis was performed as described in Zheng et al 2010 (PloS One 5 (12): e14401). In brief, Rose Bengal is a fluorescent dye that when injected into the vasculature and excited, generates singlet oxygen that damages the endothelial wall and induces a local thrombosis (clot). Using this technique, mice were given a 0.1 mL tail-vein injection of sterilized Rose Bengal (RB, Sigma, U.S.A.) in artificial cerebral spinal fluid (aCSF). The RB concentration was 20 mg/mL. A cortical region was centered in the imaging field and illuminated with a green laser (543 nm, 5 mW) using a 0.8-NA 40× water-immersion objective (Nikon, Tokyo). The clot formation was monitored in real time until the targeted vessel or downstream capillaries were firmly occluded. Stable clots were subsequently identified by a non-fluorescent vessel segmentation ending with highly fluorescent regions. […] Treatments, MRS4322 (0.16 mg/kg; 0.5 μmol/kg) or MRS2365 (0.24 mg/kg; 0.5 μmol/kg) were introduced via intraperitoneal injections (i.p.). For experiments with A3 receptor antagonist MRS1523, mice were administered intraperitoneal injections (2 mg/kg) at the 0 and 2 hour timepoints to ensure receptor antagonism throughout the course of the study.
Animals and Photothrombosis-induced Stroke: Stroke was performed as described in Zheng et al 2010 (PloS One 5 (12): e14401). Female C57Bl/6 mice (4-6 months) were used in this study. From the methods of this manuscript: Mice were anesthetized at 3% isoflurane with 100% oxygen and subsequently maintained at 1% isoflurane through a nosecone. Depth of anesthesia was monitored and regulated according to vital signs, pinch withdrawal and eye blinks. Body temperature was maintained at 37° C. by a feedback-controlled heating pad (Gaymar T/Pump). Vital signs including oxygen saturation, respiratory rate, and heart rate were continuously monitored by using the MouseOx system (STARR Life Sciences). The hair on each mouse's head was trimmed and a small incision was made in the scalp to expose the skull. A custom-made stainless steel plate was glued to the skull with VetBond Tissue Adhesive (3M, St Paul, MN). A cranial thinned-skull imaging window was created over the right primary somatosensory cortex (˜1.5 mm posterior to Bregma and 2 mm lateral from midline) depending on the experiment. In brief, a large region of the skull was first thinned with the electric drill and then further thinned with a surgical blade. The final thickness of the thinned skull was approximately 50 μm. After the cranial imaging window was created, mice were transferred to microscope stage and used for photothrombosis or imaging experiments. For the repeat imaging experiments, the plate was carefully detached from the skull and the scalp was sutured (Ethicon 6-0 sild suture). After each experiment, the mice were either returned to cages until the next timepoint or sacrificed. All procedures were approved by the Institutional Animal Care and Use Committee (IACUC) at University of Texas Health Science Center at San Antonio. Thirty minutes following stroke or sham (uninjured), mice were treated with either vehicle (saline) or drugs (MRS4322, MRS2365, MRS5698 or Cl-IBMECA).
Post photothrombotic infarction evaluation. The size of cerebral infarcts was evaluated using 2,3,5-Triphenyltetrazolium chloride (TTC) staining as described in Zheng et al 2010 (PloS One 5 (12): e14401). In brief, RB-induced lesions in brain slices were stained with TTC. TTC is a colorless dye that stains healthy brain tissue red when reduced by the mitochondrial enzyme succinyl dehydrogenase (Bederson J B et al., 1986). The absence of staining in necrotic tissue is then used to define the area of a brain infarction. Mice were sacrificed by cervical dislocation, their brains removed and then placed in ice cold HBSS for 3 minutes. The brain was subsequently transferred to a brain mold (KOPF), sliced into 1 mm sections and immersed in 2% TTC (5 min) at 37° C. […]

[2] = tested on: mice subjected to traumatic brain injury (TBI); assay: Traumatic brain injury (TBI) in mice, Western blot analysis for GFAP; format: in vivo, C57BL/6 mice; details: for efficacy in the mouse TBI model: summary statement, FIG. 12; for GFAP expression in brain (GFAP/actin, Western blot): 7 days post-injury, vs TBI untreated
Description: Animals and traumatic brain injury (TBI): TBI was performed with a controlled closed skull injury model as described in […] al. 2012 (J. Neurotrauma 30, 55-66). Following the method described therein, a pneumatic impact device was used to generate a moderate TBI leaving the skull and dura matter intact. To achieve this, C57BL/6 mice were anesthetized with isoflurane (3% induction, 1% maintenance) in 100% oxygen. A body temperature of 37° C. was maintained using a temperature-controlled heated surgical table. A small midline incision was made on the scalp using aseptic surgical techniques. A 5 mm stainless steel disc was positioned on the skull and fixed using superglue on the right parietal bone between bregma and lamda over the somatosensory cortex. The mouse was then positioned on a stage directly under the pneumatic impact tip. […] Scalp incisions were closed using 4-0 nylon braided suture and antibiotic ointment applied to the incision. Mice were placed in a Thermo-Intensive Care Unit (Braintree Scientific model FV-1; 37° C.; 27% 02) and monitored until fully awake and moving freely. […] Western Blot Analysis for GFAP: At selected survival times, mice were anesthetized under isoflurane and sacrificed. The brain was removed and placed on ice for dissection into impacted and non-impacted brain hemispheres. […] The homogenate was transferred to a 2 mL tube and centrifuged at 1000 g for 10 minutes at 4° C. and the supernatant was collected and analyzed. Protein concentration was determined by the BCA assay using a 1:50 dilution. 100 μg of protein was removed as an aliquot for each sample and Laemmli buffer containing β-mercaptoethanol added and the sample placed in a heat block for 3 minutes at 95° C. Samples were loaded on a 12% gel and ran at 80 V for 20 minutes followed by 40 minutes at 130 V. Samples were transferred to nitrocellulose membrane at 100 V for 1 hour. The membrane was blocked with 5% milk in TBS-T for 30 minutes. GFAP (1:1000-Imgenex IMG-5083-A) was added and placed at 4° C. overnight. The membrane was washed with TBS-T three times for 10 minutes. Secondary antibody for GFAP (Donkey anti-rabbit HRP conjugated (ImmunoJackson Laboratories; 711-035-152; 1:20000) was applied at room temperature for 1 hour. The membranes were washed with TB S-T for 15 minutes (3 times) and developed using the Western Lightning Plus-ECL kit (PerkinElmer, Inc.) following manufacturer's directions.

[3] = 0.5 μmol/kg ip within 30 minutes of clot formation
[4] = TBI mice, treated 30 min post-TBI, approximately 0.5 μmol/kg

## CNC(=O)[C@H]1O[C@@H](n2cnc3c(NCc4cccc(I)c4)nc(Cl)nc32)[C@H](O)[C@@H]1O [Cl-IB-MECA, 2-Chloro-N^6-(3-iodobenzyl)-adenosine-5′-N-methyluronamide, reference compound]
[1]
  efficacy in the mouse photothrombotic stroke model: inactive
[2]
  efficacy in the mouse TBI model: weakly active

## CSc1nc(N)c2ncn([C@H]3[C@H](O)[C@H](O)[C@]4(COP(=O)(O)OP(=O)(O)O)C[C@H]34)c2n1 [MRS2365]
[1]
  size of brain infarctions in mice pretreated with A3 receptor antagonist MRS1523: not reduced
[1]; [3]
  size of the brain infarction (TTC staining): significantly reduced
[2]; [4]
  GFAP expression in brain (GFAP/actin, Western blot): significantly lower; also recorded: decreased

## CSc1nc(N)c2ncn([C@H]3[C@H](O)[C@H](O)[C@]4(CO)C[C@H]34)c2n1 [MRS4322]
[1]
  size of brain infarctions in mice pretreated with A3 receptor antagonist MRS1523: not reduced; also recorded: reversed by MRS1523
  efficacy in the mouse photothrombotic stroke model: significant efficacy
[1]; [3]
  size of the brain infarction (TTC staining): significantly reduced; also recorded: reduced the effects of stroke infarction
[1]; 100 ul of 100 uM ip within 30 minutes of clot formation
  size of the brain infarction (TTC staining): significantly reduced
[2]; [4]
  GFAP expression in brain (GFAP/actin, Western blot): significantly lower; also recorded: decreased
[2]; TBI mice, treated 30 min post-TBI, approximately 0.5 μmol/kg, day 7, vs TBI untreated
  GFAP levels in plasma relative to actin (Western blot): significantly reduced
[2]
  efficacy in the mouse TBI model: significant efficacy
